Target: Chymotrypsinogen A (Bos taurus) (UniProt P00766)
Assay: Inhibitory activity against alpha chymotrypsin from bovine pancreas.

Ki: 1630 nM
SMILES: Nc1cnc(-c2ccc(F)cc2)n(CC(=O)NC(Cc2ccccc2)C(=O)c2nc3cc(-c4ccccc4)ccc3o2)c1=O (stereo unspecified) [2-[5-Amino-2-(4-fluoro-phenyl)-6-oxo-6H-pyrimidin-1-yl]-N-[1-benzyl-2-oxo-2-(5-phenyl-benzooxazol-2-yl)-ethyl]-acetamide]

— BindingDB's records for doi:10.1021/jm000496v (Welfide, 2001)
